# Laboratory results: patent US20190183908A1 (priority 2016, published 2019)
# “Also recorded” adds a separate entry of the source.
# Legend:
# MMP9 = test system: MMP9; parameters: species or system mice; settings: mouse, in vivo
# UV irradiated mice = test system: UV irradiated mice; parameters: species or system C57BL/6 mice; settings: mouse, in vivo
# TNF-α [1] = test system: TNF-α; parameters: species or system mice; settings: mouse, in vivo
# [2] = test system: LC3 in F4/80+ macrophages; parameters: species or system mice; settings: mouse, in vivo
# UV induced apoptosis = settings: mouse, in vivo
# [3] = test system: LC3 in CD206+ macrophages; parameters: species or system mice; settings: mouse, in vivo
# CD206+ M2 macrophages = test system: CD206+ M2 macrophages; parameters: species or system mice; settings: mouse, in vivo
# [4] = test system: nitrogen mustard exposed mice; settings: mouse, in vivo, ip; cited from earlier work
# M2:M1 macrophage ratio = test system: M2:M1 macrophage ratio; parameters: species or system mice; settings: mouse, in vivo
# iNOS [5] = test system: iNOS; parameters: species or system mice; settings: mouse, in vivo
# Arginase1 = test system: Arginase1; parameters: species or system mice; settings: mouse, in vivo
# Valchlor-exposed skin [6] = test system: Valchlor-exposed skin; parameters: species or system human; settings: in vivo
# Valchlor-exposed skin [7] = format: in vivo, human
# arginase-1 = test system: arginase-1; parameters: species or system human; settings: in vivo
# [8] = test system: LC3 in CD163+ macrophages; parameters: species or system human; settings: in vivo, po
# [9] = test system: UVR-irradiated skin of healthy adults; parameters: species or system human; settings: in vivo
# TNF-α [10] = test system: TNF-α; parameters: species or system human; settings: in vivo, po
# COX-2 = test system: COX-2; parameters: species or system human; settings: in vivo, po
# iNOS [11] = test system: iNOS; parameters: species or system human; settings: in vivo, po
# [12] = test system: UVR-irradiated skin of healthy adults; format: in vivo, human; settings: N=4
# Valchlor-exposed skin [13] = settings: human, in vivo
# [14] = test system: UVR-irradiated skin of healthy adults; parameters: species or system human; settings: in vivo; remark: listed apart in the source
# IL-6 = test system: IL-6; parameters: species or system human; settings: in vivo, po
# TNF-α [15] = test system: TNF-α; parameters: species or system human; settings: in vivo, po; remark: listed apart in the source
compound,measurement,setting,value
25(OH)D,Gene expression of MMP9,MMP9,sustained inhibition; also recorded: significantly suppressed; also recorded: suppresses
same,"Skin inflammation, wound progression and histological architecture",UV irradiated mice; ip,"prevented excessive cutaneous damage; also recorded: delayed skin inflammation, arrested skin wound progression and accelerated wound repair; also recorded: protects from UV induced necrosis, dyskeratosis and vacuolation of the basal layer"
same,Gene expression of TNF (TNF-α),TNF-α [1],sustained inhibition; also recorded: significantly suppressed; also recorded: suppresses
same,Elevation of macrophage-specific autophagy (LC3 punctae) compared to UV induced autophagy,[2],5 fold
same,UV mediated apoptotic cell death (TUNEL+ cells),UV induced apoptosis,significantly diminished
same,LC3+CD206+ cells in the dermis,[3],significantly increased number of cells
same,M2 macrophages (CD206+) relative to M1,CD206+ M2 macrophages,more M2 cells co-localizing with LC3; also recorded: expands the M2 compared to M1
same,"Acute skin and systemic inflammation, tissue damage and mortality",[4],sufficient to prevent acute skin and systemic inflammation and rescue mice from extensive tissue damage and mortality
same,M2:M1 ratio,M2:M1 macrophage ratio,significantly altered
same,M2:M1 ratio in presence or absence of VD,M2:M1 macrophage ratio,comparable
same,Gene expression of iNOS (NOS2),iNOS [5],significantly suppressed; also recorded: suppresses
same,arg1 staining in CD206+ cells,Arginase1,selectively stain for arg1 in CD206+ cells
"Cn1cnc(N)c2ncnc1-2 [3-MA, 3-methyladenine]",MMP9 under blockade of autophagy,MMP9,increasing
same,UV-induced inflammation / VD mediated protection under blockade of autophagy,UV irradiated mice,exacerbated UV-induced inflammation; also recorded: reversed VD mediated protection from inflammation
same,TNF-α under blockade of autophagy,TNF-α [1],increasing
same,UV induced and VD induced autophagy,[2],inhibited
same,LC3 expression in skin under inhibition of autophagy,[3],abolished LC3 expression
same,M2 macrophages / cellular profile under blockade of autophagy,CD206+ M2 macrophages,depleted functional M2 macrophages; also recorded: recapitulates cellular profile observed with UV while quenching LC3 expression
same,arg1 expression in CD206+ cells under inhibition of autophagy,Arginase1,diminished arg1 expression
"C=C1CC[C@H](O)C/C1=C/C=C1\CCC[C@]2(C)[C@@H]([C@H](C)CCCC(C)C)CC[C@@H]12 [vitamin D3, cholecalciferol]",Skin thickness (arm 2 − arm 1) compared to placebo,Valchlor-exposed skin [6],trend in decreasing thickness; also recorded: reduction in skin thickness
same,Reduction in skin vesication on histology,"Valchlor-exposed skin [7]; in vivo, po",50%
same,Vesication by histology,Valchlor-exposed skin [7]; n=2,0%
same,Arginase-1 protein expression localized to CD163+ macrophages,arginase-1,increased expression
same,LC3 co-localized with CD163+ macrophages in human skin,[8],upregulates cells that co-localize LC and CD163; also recorded: enhanced LC3
same,"Histologic structural damage (epidermal vesiculation, edema formation)",[9],improved
same,Skin expression of TNF-α compared to placebo,TNF-α [10],reduced expression; also recorded: lower
same,Reduction in COX-2,COX-2,80%
same,Skin expression of iNOS compared to placebo,iNOS [11],reduced expression; also recorded: lower
same,"Erythema Δa*24 hr, Mean (95% CI)",[12],2.0 (−2.1.6.1)
same,"Net skin symptom Irritation, Day 0",Valchlor-exposed skin [13],1.0
same,"Net skin symptom Irritation, Day 1",Valchlor-exposed skin [13],0.5
same,"Net skin symptom Irritation, Day 2",Valchlor-exposed skin [13],1.1
same,"Net skin symptom Irritation, Day 3",Valchlor-exposed skin [13],0.8
same,"Net skin symptom Irritation, Day 4",Valchlor-exposed skin [13],0.5
same,"Net skin symptom Irritation, Day 5",Valchlor-exposed skin [13],0.1
same,"Net skin symptom Irritation, Day 6",Valchlor-exposed skin [13],−0.2
same,"Net skin symptom Irritation, Slope",Valchlor-exposed skin [13],−0.1202 ± 0.05
same,"Net skin symptom Warmth, Day 0",Valchlor-exposed skin [13],1.0
same,"Net skin symptom Warmth, Day 1",Valchlor-exposed skin [13],0.5
same,"Net skin symptom Warmth, Day 2",Valchlor-exposed skin [13],−0.2
same,"Net skin symptom Warmth, Day 3",Valchlor-exposed skin [13],0.0
same,"Net skin symptom Warmth, Day 4",Valchlor-exposed skin [13],−1.0
same,"Net skin symptom Warmth, Day 5",Valchlor-exposed skin [13],0.3
same,"Net skin symptom Warmth, Day 6",Valchlor-exposed skin [13],−0.3
same,"Net skin symptom Warmth, Slope",Valchlor-exposed skin [13],−0.1296 + 0.083
same,"Patient reported skin symptoms (warmth, irritation)",Valchlor-exposed skin [13],demonstrable reduction; also recorded: decreased
same,"Skin pain, burning sensation, and itch",Valchlor-exposed skin [13],no observable difference
same,Skin thickness after irradiation with higher doses,[14],trend for decreased skin thickness
same,Reduction in IL-6,IL-6,112%
same,Reduction in TNF-α,TNF-α [15],66%
